Data taken from EP2527323A1, “Urea carbonyl disulfide derivatives and their therapeutic uses” (NOSCIRA, S.A., priority 2011, dated 2012).

Key:
[1] = target: T1, human recombinant GSK3β (Homo sapiens, UniProt P49841); assay: GSK-3β assay (Z'-LYTE FRET enzymatic activity); type: biochemical; settings: 2 nM enzyme (N-terminal 6His-tagged, H350L mutation), 12.5 µM ATP, 2 µM Ser/Thr 9 peptide, 60 min at room temperature, 1% DMSO; read-out: GSK3β inhibition average EC50
T1 construct: 6His (N); purchased Millipore (Billerica, MA, USA)
Protocol: The enzymatic activity of GSK3β was determined with a commercial system based on the Z'-LYTE® technology, available from Invitrogen Life Technologies (Carlsbad, CA, USA), using human recombinant GSK3β (N-terminal 6His-tagged recombinant enzyme with an H350L mutation) from Millipore (Billerica, MA, USA) as the enzyme source. This technology utilizes the fluorescence resonance energy transfer ("FRET") process between fluorescein and coumarin. The assay principle is based on the differential sensitivity of phosphorylated and non-phosphorylated peptide to proteolytic cleavage, which precludes the energy transfer process between the two fluorophores attached to both sides of the cleavage site. […] The latter is a synthetic peptide, provided by Invitrogen under the commercial name "Ser/Thr 9 peptide", and it is based upon the sequence of a GSK3β substrate protein (glycogen synthase I) containing Ser-641. The peptide is labeled at both ends with fluorescein and coumarin. The assay is carried out in the presence of different concentrations of the tested compound, at a final 1% (v/v) DMSO concentration. After a 60 min incubation at room temperature, 5 µl of a commercial protease solution (sold by the same vendor in the assay kit) is added and a subsequent 1h incubation at room temperature is performed, before adding 5 µl of a suitable "stop solution", also provided by the vendor in the kit. After that, fluorescence intensity is recorded, monitoring emission at both 445 and 520 nm, upon excitation at 400 nm. An emission ratio is finally calculated, using the quotient among the emission at 445 nm divided by that at 520 nm.
The emission ratio of each tested sample is normalized to that of the control wells, so that for every compound concentration the percentage of inhibition is calculated by using the following equation: % Inhibition = 100⋅(E-S)/(E-B) [formula] wherein "S" is the emission ratio of the sample being considered, "E" is the average emission ratio of wells, including enzyme in the absence of inhibitors, and "B" is the average emission ratio of wells without enzyme. The inhibition values obtained at every compound concentration are finally used to calculate the EC50 of the tested compound, this parameter being the concentration of the compound which causes 50% of inhibition. For that purpose, the data were fitted to a classical 4-parameters isotherm equation using the nonlinear regression function of GraphPad™ Prism 5.0 (GraphPad Software Inc.). Such equation is described below: % Inhibition = L + (H-L)/(1 + (((EC50)/(C)))^n) [formula] wherein "L" is the lower asymptote of the theoretical sigmoidal curve, "H" is the higher asymptote, "C" is the concentration of compound and "n" is the Hill coefficient.

[2] = tested on: Ser-396 residue of Tau protein in human neuroblastoma SH-SY5Y cells; assay: Cellular assay: phosphorylation at Ser-396 of Tau protein (ELISA); type: cell-based; settings: 18 h incubation at 37°C, 1% DMSO, normalized to untreated cells, read-out: pS*er396-Tau average EC50
Protocol: The effect of the compound in cells is determined by monitoring the level of phosphorylation at the Ser-396 residue of Tau protein in human neuroblastoma SH-SY5Y cells. Cells are grown in 96-well plates: 30,000 cells per well in a volume of 100 µl of 1:1 MEM:Ham's F12 medium including 10% (v/v) fetal bovine serum, 100 U/ml penicillin, 100 µg/ml streptomycin and 1% (v/v) 100-fold concentrated commercial stock of non-essential aminoacids (Gibco, Carlsbad, CA, USA), and incubated at 37°C during 24 h. Then, the corresponding amount of test compound is added to the wells to reach the desired concentration in 1% (v/v) DMSO. The system is incubated at 37°C during 18 h and afterwards cells are harvested, washed with phosphate buffer saline and incubated during 30 min on ice with 120 µl per well of "lysis buffer" (10 mM Tris-HCl pH 7.4, 100 mM NaCl, 1 mM EDTA, 2 mM sodium orthovanadate, 1% (v/v) Triton X-100, 10% (v/v) glycerol, 0.1% (w/v) sodium dodecyl sulfate, 0.5 % (w/v) sodium deoxycholate, 4% (v/v) 25-fold concentrated commercial stock of protease inhibitors (Roche, Basel, Switzerland) and 1 mM phenylmethylsulfonyl fluoride). 60 µl of this mixture is then placed in an empty 96-well plate and the levels of Ser-396 phosphorylation are determined using a commercial ELISA kit (Biosource, Carlsbad, CA, USA), following manufacturer's instructions. The levels of phosphorylation are expressed as percentage values, after normalizing them to those in untreated cells and those values are used to calculate EC50s, as described above for GSK-3.

T1 sequence (P49841 whole entry): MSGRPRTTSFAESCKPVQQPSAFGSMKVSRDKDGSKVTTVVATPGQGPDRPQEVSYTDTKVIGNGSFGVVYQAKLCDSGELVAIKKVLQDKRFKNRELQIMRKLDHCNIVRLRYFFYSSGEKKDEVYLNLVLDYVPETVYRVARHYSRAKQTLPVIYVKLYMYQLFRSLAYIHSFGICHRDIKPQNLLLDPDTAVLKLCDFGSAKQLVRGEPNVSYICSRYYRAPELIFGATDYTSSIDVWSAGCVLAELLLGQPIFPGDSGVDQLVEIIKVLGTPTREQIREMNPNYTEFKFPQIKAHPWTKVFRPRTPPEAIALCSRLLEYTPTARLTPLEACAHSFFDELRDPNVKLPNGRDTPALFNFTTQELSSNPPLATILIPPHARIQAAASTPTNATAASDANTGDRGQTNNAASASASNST

EC50 [1] [nM] | Compound | EC50 [2] [nM]
339 | CCSSC(=O)N(C(=O)N(C)C)c1cccc(C(F)(F)F)c1 [Compound 13] | –
8320 | CCN(CC)C(=O)N(C(=O)SSCc1ccccc1)c1cc(F)cc(F)c1 [Compound 12] | –
35 | CC(C)C(C)SSC(=O)N(Cc1ccccc1)C(=O)Nc1ccc(Oc2ccccc2)cc1 (centres unmarked) [Compound 9, 1-Benzyl-1-(hexan-2,5-dithia-4,5-dimethyl-1-yl)-3-(4-phenoxy-phenyl)-urea] | –
1660 | O=C(Nc1cccc2ccccc12)N(Cc1ccccc1)C(=O)SS [Compound 15, Benzyl-(N-Naphthalen-1-yl-formamide)-carbamoyl sodium dithioperoxol] | –
295 | CCCCCSSC(=O)N(Cc1ccccc1)C(=O)NCc1ccccc1 [Compound 10, 1,3-Dibenzyl-1-(octan-2,3-dithia-1-oyl)-urea] | 7080
104 | COC(=O)C(CSSC(=O)N(Cc1ccccc1)C(=O)Nc1cccc2ccccc12)NC(C)=O (centres unmarked) [Compound 11, 2-Acetylamino-6-(1-benzyl-3-naphthalen-1-yl-ureido)-4-5-dithia-6-oxo-hexanoic acid methyl ester] | –

Continued, compound first:

Compound | EC50 [1] [nM] | EC50 [2] [nM]
C=CCSSC(=O)N(Cc1ccccc1)C(=O)Nc1cccc2ccccc12 [Compound 1, 1-Benzyl-1-hex-2,3-dithia-5-enoyl-3-naphthalen-1-yl-urea] | 708 | –
O=C(Nc1cccc2ccccc12)N(Cc1ccccc1)C(=O)SSC1CCCC1 [Compound 5, 1-Benzyl-1-(3-cyclopentyl-propion-2,3-dithia-1-oyl)-3-naphthalen-1-yl-urea] | 125 | –
O=C(Nc1cccc2ccccc12)N(Cc1ccccc1)C(=O)SSCc1ccccc1 [Compound 6, 1-Benzyl-3-naphthalen-1-yl-1-(4-phenyl-butyr-2,3-dithia-1-oyl)-urea] | 229 | 6760
O=C(Nc1ccc2c(c1)OCO2)N(Cc1ccccc1)C(=O)SSC1CCCC1 [Compound 7, 3-Benzo[1,3]dioxol-5-yl-1-benzyl-1-(1-propion-2,3-dithia-3-cyclopentyl-1-yl)-urea] | 82 | –
CC(C)C(C)SSC(=O)N(Cc1ccccc1)C(=O)Nc1cccc2ccccc12 (centres unmarked) [Compound 3, 1-Benzyl-1-(4,5 dimethy-hexan-2,3-dithia-1-oyl)-3-naphthalen-1-yl-urea] | 161 | –
O=C(Nc1cccc2ccccc12)N(Cc1ccccc1)C(=O)SSCCc1ccccc1 [Compound 4, 1-Benzyl-1-(5-phenyl-pentan-2,3-dithia-1-oyl)-3-naphthalen-1-yl-urea] | 58 | 6610
CCCCSSC(=O)N(Cc1ccccc1)C(=O)Nc1cccc2ccccc12 [Compound 2, 1-Benzyl-1-heptan-2,3-dithia-1-oyl-3-naphthalen-1-yl-urea] | 66 | –
CCOC(=O)CNC(=O)N(CC(=O)OCC)C(=O)SSCCc1ccccc1 [Compound 8, [3-Ethoxycarbonylmethyl-3-(pentan-2,3-dithia-5-phenyl-1-yl)-ureido]-acetic acid ethyl ester] | 97 | –
